Key:
SMCs [1] = test: Images of SMCs treated with and without compound; format: cell-based; conditions: FIG. 21C
SphK = SphK inhibition
Sphk1 = target: T1, Sphk1 (Rattus norvegicus, UniProt Q91V26); test: Sphk1/Sphk2 activity in PDGF-BB-stimulated smooth muscle cells (P32 ATP kinase assay); format: cell-based; conditions: cultured rat aortic smooth muscle cells stimulated with PDGF-BB; FIG. 19B
T1 construct: endogenous in cells; host or cells: cultured rat aortic smooth muscle cells
Protocol: (§1) Smooth muscle cells (SMCs) are treated with platelet-derived growth factor BB (PDGF-BB), a potent modulator of SMC.
(§2) FIG. 19 illustrates the PDGF-BB increase Sphk1 mRNA, Spkh1 (not Sphk2) activity and S1P production. […] Cultured rat aortic smooth muscle cells were stimulated with PDGF-BB. 19A.) Real-time PCR analysis of Sphk1 mRNA at various time points compared to vehicle control. 19B.) Analysis of Sphk1 and Sphk2 activity (P^32ATP kinase assay). 19C.) S1P concentration in the media 12 hours after stimulating SMCs with PDGF-BB.

S1P production = S1P production by smooth muscle cells (LC/MS); format: cell-based, rat
Protocol: as §1, §2

SMCs [2] = test: Cell cytotoxicity by Promega caspase activity assay; format: cell-based; conditions: after 24 hr treatment, FIG. 21B
SMCs [3] = test: PDGF-BB-induced SMC proliferation by BrdU incorporation; format: cell-based; conditions: FIG. 21A
Protocol: Cell proliferation was measured by BrdU incorporation.

T1 sequence (Q91V26 whole entry): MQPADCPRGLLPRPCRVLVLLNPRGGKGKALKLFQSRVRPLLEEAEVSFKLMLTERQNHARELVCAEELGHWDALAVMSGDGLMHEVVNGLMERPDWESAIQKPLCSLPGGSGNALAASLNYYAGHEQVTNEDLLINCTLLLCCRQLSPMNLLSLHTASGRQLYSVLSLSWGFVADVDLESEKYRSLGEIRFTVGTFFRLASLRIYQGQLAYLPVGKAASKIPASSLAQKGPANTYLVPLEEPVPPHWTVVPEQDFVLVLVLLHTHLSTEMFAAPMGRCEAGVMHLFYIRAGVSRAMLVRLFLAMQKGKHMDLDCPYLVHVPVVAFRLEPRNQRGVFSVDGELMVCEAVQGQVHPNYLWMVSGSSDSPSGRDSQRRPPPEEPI

Structure (SMILES)	SMC proliferation as indicated by differences in confluence (SMCs [1])	cell morphology (SMCs [1])	SphK inhibition (description) (SphK)	PDGF-BB-induced Sphk1 activity (Sphk1)	PDGF-BB-induced S1P production (S1P production; 10 uM, S1P in media 12 hours after stimulating SMCs with PDGF-BB, FIG. 19C)	endogenous and PDGF-BB-induced S1P production (S1P production; concentration not given)	cell death (SMCs [2])	PDGF-BB-induced SMC proliferation (SMCs [3])
CCCCCCCCc1ccc(C(=O)N[C@@H](C)C(=N)N)cc1 [VPC94075]	prevention of SMC proliferation	healthy cell morphology	non-selective SphK inhibitor	prevents PDFD-BB-induced Sphk1 activity	blocks PDGF-BB-induced S1P production	suppresses both endogenous and PDGF-BB-induced S1P production	does not induce cell death	
CCCCCCCCc1ccc(C(=O)NC(C)C(N)=O)cc1 (stereo not drawn) [VPC94193]			inactive form					prevented PDGF-BB-induced SMC proliferation
